Columns and labels:
Type in all cases: in vivo
[1] = test system: red mites (Dermanyssus gallinae); test: Test Example 4: controlling effect on red mites, Pasteur pipette treated with acetone solution; settings: 24 hours after treatment, unfed adult red mites; for pest or weed control at 5000 ppm: Dermanyssus gallinae, read-out: Ratio of dead and affected mites; for Ratio of dead and affected mites: 5000 ppm
Source text: The tip of a Pasteur pipette was sealed with Parafilm, and an acetone solution (liquid agent) of each of the samples shown in Table 5 below diluted to a predetermined concentration was poured into the pipette through an upper portion thereof. One minute later, the Parafilm at the tip was detached, and the liquid agent was discharged. After the pipette was air dried, absorbent cotton was inserted to an upper end of the pipette, and 20 unfed adult red mites (Dermanyssus gallinae) were released into the pipette. After the tip was sealed with Hemato-Seal, the pipette was stored in the dark in an incubator at a temperature of 25 to 28° C. and a humidity of 40 to 60%. […] Then, the ratio (%) of dead and affected mites was calculated according to the following formula. Acequinocyl and fluacrypyrim were used as control drugs. The ratio (%) of dead and affected mites={(the number of dead mites+the number of affected mites)/(the number of survived mites+the number of affected mites+the number of dead mites)}×100

[2] = test system: northern fowl mites (Ornithonyssus sylviarum); test: Test Example 3: controlling effect on northern fowl mites, Pasteur pipette treated with acetone solution; settings: fed adult northern fowl mites
Source text: The tip of a Pasteur pipette was sealed with Parafilm, and an acetone solution (liquid agent) of each of the samples shown in Table 4 below diluted to a predetermined concentration was poured into the pipette through an upper portion thereof. One minute later, the Parafilm at the tip was detached, and the liquid agent was discharged. After the pipette was air dried, absorbent cotton was inserted to an upper end of the pipette, and 10 fed adult northern fowl mites (Ornithonyssus sylviarum) were released into the pipette. After the tip was sealed with Hemato-Seal, the pipette was stored in the dark in an incubator at 25° C. and at a humidity of 80%. After 2 and 24 hours had passed since the treatment, the mites were observed under a stereomicroscope to determine whether the mites were dead or alive and whether the mites were affected. Then, the ratio (%) of dead and affected mites was calculated. The ratio (%) of dead and affected mites={(the number of dead mites+the number of affected mites)/(the number of survived mites+the number of affected mites+the number of dead mites)}×100

[3] = test system: red mites (Dermanyssus gallinae); test: Test Example 1: controlling effect on red mites, Pasteur pipette treated with acetone solution; settings: unfed adult red mites
Source text: The tip of a Pasteur pipette was sealed with Parafilm, and an acetone solution (liquid agent) of each of the samples shown in Table 2 below diluted to a predetermined concentration was poured into the pipette through an upper portion thereof. One minute later, the Parafilm at the tip was detached, and the liquid agent was discharged. After the pipette was air dried, absorbent cotton was inserted to an upper end of the pipette, and 20 unfed adult red mites (Dermanyssus gallinae) were released into the pipette. After the tip was sealed with Hemato-Seal, the pipette was stored in the dark in an incubator at a temperature of 27 to 28° C. and a humidity of 50 to 60%. After 24, 48, and 72 hours had passed since the treatment, the mites were observed under a stereomicroscope to determine whether the mites were dead or alive and whether the mites were affected. Then, the ratio (%) of dead and affected mites was calculated according to the following formula. Spinosad, trichlorfon, and permethrin were used as control drugs. The ratio (%) of dead and affected mites={(the number of dead mites+the number of affected mites)/(the number of survived mites+the number of affected mites+the number of dead mites)}×100

Molecule: C[C@@]1(c2ccc(Oc3ccccc3)cc2)OC(=O)N(Nc2ccccc2)C1=O (racemic) [Famoxadone]
- pest or weed control at 5000 ppm [1]: 81.7%

Molecule: CCCCCCCCCCCCC1=C(OC(C)=O)C(=O)c2ccccc2C1=O [Acequinocyl]
- pest or weed control at 5000 ppm [1]: 93.3%

Molecule: Cc1c(Br)c2ccc(F)cc2n1S(=O)(=O)c1ncn(S(=O)(=O)N(C)C)n1 [Amisulbrom]
- Ratio of dead and affected mites [1]: 92.9%

Molecule: CO/C=C(/C(=O)OC)c1ccccc1Oc1cc(Oc2ccccc2C#N)ncn1 [Azoxystrobin]
- Ratio of dead and affected mites [1]: 55.2%

Molecule: O=C(Nc1ccccc1-c1ccc(Cl)cc1)c1cccnc1Cl [Boscalid]
- pest or weed control at 5000 ppm [1]: 44.5%

Molecule: CC1=C(C(=O)Nc2ccccc2)SCCO1 [Carboxin]
- pest or weed control at 5000 ppm [1]: 42.6%

Molecule: CC(=O)Oc1c(C)c(C)nc2c(F)cc(C(C)(C)C)cc12 [Compound A]
- Ratio of dead and affected mites ([2]; 50 ppm, 2 hours later): 13%
- Ratio of dead and affected mites ([2]; 50 ppm, 24 hours later): 92%
- Ratio of dead and affected mites ([2]; 200 ppm, 2 hours later): 53%
- Ratio of dead and affected mites ([2]; 200 ppm, 24 hours later): 100%
- Ratio of dead and affected mites ([2]; 1000 ppm, 2 hours later): 100%
- Ratio of dead and affected mites ([2]; 1000 ppm, 24 hours later): 100%
- Ratio of dead and affected mites ([3]; 200 ppm, 24 hours later): 7%
- Ratio of dead and affected mites ([3]; 200 ppm, 48 hours later): 81%
- Ratio of dead and affected mites ([3]; 200 ppm, 72 hours later): 98%
- Ratio of dead and affected mites ([3]; 1000 ppm, 24 hours later): 100%
- Ratio of dead and affected mites ([3]; 1000 ppm, 48 hours later): 100%
- Ratio of dead and affected mites ([3]; 1000 ppm, 72 hours later): 100%

Molecule: CC(=O)Oc1c(C)c(C)nc2c(C)cc(C(C)(C)C)cc12 [Compound B]
- Ratio of dead and affected mites ([3]; 100 ppm, 24 hours later): 100%
- Ratio of dead and affected mites ([3]; 100 ppm, 48 hours later): 100%

Molecule: CC(=O)Oc1c(C)c(C)nc2c(C)cc(Br)cc12 [Compound C]
- Ratio of dead and affected mites ([3]; 100 ppm, 24 hours later): 91%
- Ratio of dead and affected mites ([3]; 100 ppm, 48 hours later): 95%

Molecule: CC(=O)Oc1c(C)c(C)nc2c(C)cc(F)cc12 [Compound D]
- Ratio of dead and affected mites ([3]; 100 ppm, 24 hours later): 100%
- Ratio of dead and affected mites ([3]; 100 ppm, 48 hours later): 100%

Molecule: COC(=O)Oc1c(C)c(C)nc2ccc(F)cc12 [Compound F]
- Ratio of dead and affected mites ([3]; 50 ppm, 24 hours later): 55%

Molecule: Cc1ccc(-c2c(Cl)nc(C#N)n2S(=O)(=O)N(C)C)cc1 [Cyazofamid]
- pest or weed control at 5000 ppm [1]: 23.2%

Molecule: CCC(Nc1ncnc(C)c1Cl)c1ccc(OC(F)F)cc1 (stereo not shown) [Diflumetorim]
- pest or weed control at 5000 ppm [1]: 100%

Molecule: Cc1nn(C)c(Oc2ccccc2)c1C=NOCc1ccc(C(=O)OC(C)(C)C)cc1 [Fenpyroximate]
- pest or weed control at 5000 ppm [1]: 100%

Molecule: C/C(=N/Nc1nc(C)cc(C)n1)c1ccccc1C [Ferimzone]
- pest or weed control at 5000 ppm [1]: 53.5%

Molecule: CO/C=C(/C(=O)OC)c1ccccc1COc1cc(C(F)(F)F)nc(OC(C)C)n1 [Fluacrypyrim]
- pest or weed control at 5000 ppm [1]: 19.3%

Molecule: O=[N+]([O-])c1cc(C(F)(F)F)c(Cl)c([N+](=O)[O-])c1Nc1ncc(C(F)(F)F)cc1Cl [Fluazinam]
- pest or weed control at 5000 ppm [1]: 82.5%

Molecule: CC1(C)C(C=C(Cl)c2ccc(Cl)cc2)C1C(=O)OC(C#N)c1ccc(F)c(Oc2ccccc2)c1 (stereo not shown) [Flumethrin]
- Ratio of dead and affected mites ([2]; 5 ppm, 24 hours later): 67%
- Ratio of dead and affected mites ([2]; 20 ppm, 24 hours later): 83%
- Ratio of dead and affected mites ([2]; 50 ppm, 2 hours later): 100%
- Ratio of dead and affected mites ([2]; 50 ppm, 24 hours later): 100%

Molecule: O=C(NCCc1ncc(C(F)(F)F)cc1Cl)c1ccccc1C(F)(F)F [Fluopyram]
- pest or weed control at 5000 ppm [1]: 50.5%

Molecule: CO/N=C(/C1=NOCCO1)c1ccccc1Oc1ncnc(Oc2ccccc2Cl)c1F [Fluoxastrobin]
- pest or weed control at 5000 ppm [1]: 66.5%

Molecule: CC(C)Oc1cccc(NC(=O)c2ccccc2C(F)(F)F)c1 [Flutolanil]
- pest or weed control at 5000 ppm [1]: 39.5%

Molecule: Cn1cc(C(=O)Nc2ccccc2-c2cc(F)c(F)c(F)c2)c(C(F)F)n1 [Fluxapyroxad]
- Ratio of dead and affected mites [1]: 61.3%

Molecule: Cc1nn(C)c(Cl)c1C(=O)Nc1cccc2c1C(C)OC2(C)C (stereo not shown) [Furametpyr]
- Ratio of dead and affected mites [1]: 56.1%

Molecule: Cc1cc(OC(C)C)ccc1C(=O)C(C)(C)NC(=O)c1sccc1C [Isofetamid]
- Ratio of dead and affected mites [1]: 17.4%

Molecule: CO/N=C(/C(=O)OC)c1ccccc1COc1ccccc1C [Kresoxim-Methyl]
- pest or weed control at 5000 ppm [1]: 52.8%

Molecule: Cc1ccccc1C(=O)Nc1cccc(OC(C)C)c1 [Mepronil]
- pest or weed control at 5000 ppm [1]: 52.1%

Molecule: CNC(=O)/C(=N/OC)c1ccccc1Oc1ccccc1 [Metominostrobin]
- pest or weed control at 5000 ppm [1]: 50%

Molecule: CNC(=O)/C(=N/OC)c1ccccc1CO/N=C(C)/C(=N/OC)C(/C)=N/OC [Orysastrobin]
- Ratio of dead and affected mites [1]: 82.6%

Molecule: Cc1nn(C)c(F)c1C(=O)Nc1ccccc1C(C)CC(C)C (stereo not shown) [Penflufen]
- Ratio of dead and affected mites [1]: 20.5%

Molecule: CC(C)CC(C)c1sccc1NC(=O)c1cn(C)nc1C(F)(F)F (stereo not shown) [Penthiopyrad]
- pest or weed control at 5000 ppm [1]: 35%

Molecule: CC1(C)C(C=C(Cl)Cl)C1C(=O)OCc1cccc(Oc2ccccc2)c1 (stereo not shown) [Permethrin]
- Ratio of dead and affected mites ([3]; 100 ppm, 48 hours later): 6%

Molecule: CO/C=C(/C(=O)OC)c1ccccc1COc1cccc(C(F)(F)F)n1 [Picoxystrobin]
- Ratio of dead and affected mites [1]: 80.5%

Molecule: COC(=O)N(OC)c1ccccc1COc1ccn(-c2ccc(Cl)cc2)n1 [Pyraclostrobin]
- pest or weed control at 5000 ppm [1]: 77.3%

Molecule: COC(=O)NCc1cc(/C(C)=N/OCc2cccc(C)n2)ccc1Cl [Pyribencarb]
- pest or weed control at 5000 ppm [1]: 31.1%

Molecule: Cc1nc(C(F)(F)F)c(C(=O)Nc2c(Br)cc(OC(F)(F)F)cc2Br)s1 [Thifluzamide]
- pest or weed control at 5000 ppm [1]: 63.2%

Molecule: COP(=O)(OC)C(O)C(Cl)(Cl)Cl (stereo not shown) [Trichlorfon]
- Ratio of dead and affected mites ([3]; 5000 ppm, 48 hours later): 84%

Molecule: CON=C(C(=O)OC)c1ccccc1CON=C(C)c1cccc(C(F)(F)F)c1 [Trifloxystrobin]
- pest or weed control at 5000 ppm [1]: 75.7%

Molecule: Spinosad
- Ratio of dead and affected mites ([2]; 50 ppm, 2 hours later): 18%
- Ratio of dead and affected mites ([2]; 50 ppm, 24 hours later): 80%
- Ratio of dead and affected mites ([2]; 200 ppm, 2 hours later): 3%
- Ratio of dead and affected mites ([2]; 200 ppm, 24 hours later): 94%
- Ratio of dead and affected mites ([3]; 200 ppm, 24 hours later): 33%
- Ratio of dead and affected mites ([3]; 200 ppm, 48 hours later): 69%
- Ratio of dead and affected mites ([3]; 200 ppm, 72 hours later): 72%
- Ratio of dead and affected mites ([3]; 1000 ppm, 24 hours later): 32%
- Ratio of dead and affected mites ([3]; 1000 ppm, 48 hours later): 82%
- Ratio of dead and affected mites ([3]; 1000 ppm, 72 hours later): 95%
